A short description of this data set: Single dose oral pharmacokinetic study. The note with it: mouse, mice, 30 mg/kg, plasma; for AUC(0-t): read-out: Mice oral PK @30 mg/kg AUC 0-t; for Cmax: read-out: Mice oral PK @30 mg/kg Cmax. In kind it is in vivo. The method, then:
The test item was administered through oral route to animals (rat/mice) at 30 mg/kg dose in a suitable vehicle at 10 ml/kg dose volume. Blood samples (˜50 uL at each time point) were collected from retro-orbital plexus using K3 EDTA as anticoagulant in eppend; orf tubes at defined time intervals under light ether anesthesia. The samples were centrifuged at 3500×g to separate plasma and stored at −80° C. until analysis.
Sample analysis: Test samples were analyzed using LC-MS-MS after developing fit-for-purpose method for each of test compound.

Among the data in US20170129916A1, “NOVEL BETULINIC PROLINE IMIDAZOLE DERIVATIVES AS HIV INHIBITORS” (HETERO RESEARCH FOUNDATION, priority 2014, published 2017) are AUC(0-t) and Cmax values, retold here.

`C=C(C)[C@@H]1CC[C@]2(C(=O)N3CCC[C@H]3c3ncc(-c4ccc(C(F)(F)F)cc4)[nH]3)CC[C@]3(C)[C@H](CC[C@@H]4[C@@]5(C)CC[C@H](OC(=O)[C@H]6C[C@@H](C(=O)O)C6(C)C)C(C)(C)[C@@H]5CC[C@]43C)[C@@H]12` [Compound 6, (1R,3S)-2,2-dimethyl-3-((((1R,3aS,5aR,5bR,7aR,9S,11aR,11bR,13aR,13bR)-5a,5b,8,8,11a-pentamethyl-1-(prop-1-en-2-yl)-3a-((S)-2-(5-(4-(trifluoromethyl)phenyl)-1H-imidazol-2-yl)pyrrolidine-1-carbonyl)icosahydro-1H-cyclopenta[a]chrysen-9-yl)oxy)carbonyl)cyclobutane-1-carboxylic acid]: the AUC(0-t) was determined as 93.4 µg·h/mL and the Cmax amounted to 3100 ng/mL.
As to `C=C(C)[C@@H]1CC[C@]2(C(=O)N3CCC[C@H]3c3ncc(-c4ccc(Cl)cc4)[nH]3)CC[C@]3(C)[C@H](CC[C@@H]4[C@@]5(C)CC[C@H](OC(=O)[C@H]6C[C@@H](C(=O)O)C6(C)C)C(C)(C)[C@@H]5CC[C@]43C)[C@@H]12` [Compound 19, (1R,3S)-3-((((1R,3aS,5aR,5bR,7aR,9S,11aR,11bR,13aR,13bR)-3a-((S)-2-(5-(4-chlorophenyl)-1H-imidazol-2-yl)pyrrolidine-1-carbonyl)-5a,5b,8,8,11a-pentamethyl-1-(prop-1-en-2-yl)icosahydro-1H-cyclopenta[a]chrysen-9-yl)oxy)carbonyl)-2,2-dimethylcyclobutane-1-carboxylic acid], the AUC(0-t) came out at 183 µg·h/mL and the Cmax came to 7500 ng/mL.
The matching figures for `C=C(C)[C@@H]1CC[C@]2(C(=O)N3C4CCC3CC(n3c(C)nnc3C(C)C)C4)CC[C@]3(C)[C@H](CC[C@@H]4[C@@]5(C)CC[C@H](OC(=O)[C@H]6C[C@@H](C(=O)O)C6(C)C)C(C)(C)[C@@H]5CC[C@]43C)[C@@H]12` (stereo partly drawn) [Compound 38, (1R,3S)-3-((((1R,3aS,5aR,5bR,7aR,9S,11aR,11bR,13aR,13bR)-3a-((1R,3R,5S)-3-(3-isopropyl-5-methyl-4H-1,2,4-triazol-4-yl)-8-azabicyclo[3.2.1]octane-8-carbonyl)-5a,5b,8,8,11a-pentamethyl-1-(prop-1-en-2-yl)icosahydro-1H-cyclopenta[a]chrysen-9-yl)oxy)carbonyl)-2,2-dimethylcyclobutane-1-carboxylic acid]: 127 µg·h/mL and 7350 ng/mL.
`C=C(C)[C@@H]1CC[C@]2(C(=O)N3CCC[C@H]3c3ncc(-c4ccccn4)[nH]3)CC[C@]3(C)[C@H](CC[C@@H]4[C@@]5(C)CC[C@H](OC(=O)CC(C)(C)C(=O)O)C(C)(C)[C@@H]5CC[C@]43C)[C@@H]12` [Compound 39, 2,2-dimethyl-4-oxo-4-(((1R,3aS,5aR,5bR,7aR,9S,11aR,11bR,13aR,13bR)-5a,5b,8,8,11a-pentamethyl-1-(prop-1-en-2-yl)-3a-((S)-2-(5-(pyridin-2-yl)-1H-imidazol-2-yl)pyrrolidine-1-carbonyl)icosahydro-1H-cyclopenta[a]chrysen-9-yl)oxy)butanoic acid]: the AUC(0-t) worked out at 80.9 µg·h/mL and the Cmax was determined as 5690 ng/mL.
For `C=C(C)[C@@H]1CC[C@]2(C(=O)N3CCC[C@H]3c3ncc(-c4ccc(F)cc4)[nH]3)CC[C@]3(C)[C@H](CC[C@@H]4[C@@]5(C)CC[C@H](OC(=O)CC(C)(C)CC(=O)O)C(C)(C)[C@@H]5CC[C@]43C)[C@@H]12` [Compound 41, 5-(((1R,3aS,5aR,5bR,7aR,9S,11aR,11bR,13aR,13bR)-3a-((S)-2-(5-(4-fluorophenyl)-1H-imidazol-2-yl)pyrrolidine-1-carbonyl)-5a,5b,8,8,11a-pentamethyl-1-(prop-1-en-2-yl)icosahydro-1H-cyclopenta[a]chrysen-9-yl)oxy)-3,3-dimethyl-5-oxopentanoic acid], the AUC(0-t) was found to be 258 µg·h/mL and the Cmax worked out at 14500 ng/mL.
For `C=C(C)[C@@H]1CC[C@]2(C(=O)N3C4CCC3CC(n3c(C)nnc3C(C)C)C4)CC[C@]3(C)[C@H](CC[C@@H]4[C@@]5(C)CC[C@H](OC(=O)CC(C)(C)C(=O)O)C(C)(C)[C@@H]5CC[C@]43C)[C@@H]12` (stereo partly drawn) [Compound 49, 4-(((1R,3aS,5aR,5bR,7aR,9S,11aR,11bR,13aR,13bR)-3a-((1R,3R,5S)-3-(3-isopropyl-5-methyl-4H-1,2,4-triazol-4-yl)-8-azabicyclo[3.2.1]octane-8-carbonyl)-5a,5b,8,8,11a-pentamethyl-1-(prop-1-en-2-yl)icosahydro-1H-cyclopenta[a]chrysen-9-yl)oxy)-2,2-dimethyl-4-oxobutanoic acid], in that order: 111 µg·h/mL and 10800 ng/mL.
For `COCCOc1ccc(-c2cnc([C@@H]3CCCN3C(=O)[C@]34CC[C@@H](C5(C)CC5)[C@@H]3[C@H]3CC[C@@H]5[C@@]6(C)CC[C@H](OC(=O)[C@H]7C[C@@H](C(=O)O)C7(C)C)C(C)(C)[C@@H]6CC[C@@]5(C)[C@]3(C)CC4)[nH]2)cc1` [Compound 52, (1R,3S)-3-((((1R,3aS,5aR,5bR,7aR,9S,11aR,11bR,13aR,13bR)-3a-((S)-2-(5-(4-(2-methoxyethoxy)phenyl)-1H-imidazol-2-yl)pyrrolidine-1-carbonyl)-5a,5b,8,8,11a-pentamethyl-1-(1-methylcyclopropyl)icosahydro-1H-cyclopenta[a]chrysen-9-yl)oxy)carbonyl)-2,2-dimethylcyclobutane-1-carboxylic acid], in that order: 273 µg·h/mL and 9610 ng/mL.
For the compound `CC1([C@@H]2CC[C@]3(C(=O)N4CCC[C@H]4c4ncc(-c5ccc[n+]([O-])c5)[nH]4)CC[C@]4(C)[C@H](CC[C@@H]5[C@@]6(C)CC[C@H](OC(=O)[C@H]7C[C@@H](C(=O)O)C7(C)C)C(C)(C)[C@@H]6CC[C@]54C)[C@@H]23)CC1` [Compound 53, 3-(2-((S)-1-((1R,3aS,5aR,5bR,7aR,9S,11aR,11bR,13aR,13bR)-9-(((1S,3R)-3-carboxy-2,2-dimethylcyclobutane-1-carbonyl)oxy)-5a,5b,8,8,11a-pentamethyl-1-(1-methylcyclopropyl)icosahydro-1H-cyclopenta[a]chrysene-3a-carbonyl)pyrrolidin-2-yl)-1H-imidazol-5-yl)pyridine-1-oxide], the AUC(0-t) amounted to 471 µg·h/mL and the Cmax came to 14700 ng/mL.
For `Cc1nnc(C(C)C)n1C1CCN(C(=O)[C@]23CC[C@@H](C4(C)CC4)[C@@H]2[C@H]2CC[C@@H]4[C@@]5(C)CC[C@H](OC(=O)[C@H]6C[C@@H](C(=O)O)C6(C)C)C(C)(C)[C@@H]5CC[C@@]4(C)[C@]2(C)CC3)CC1` [Compound 58, (1R,3S)-3-((((1R,3aS,5aR,5bR,7aR,9S,11aR,11bR,13aR,13bR)-3a-(4-(3-isopropyl-5-methyl-4H-1,2,4-triazol-4-yl)piperidine-1-carbonyl)-5a,5b,8,8,11a-pentamethyl-1-(1-methylcyclopropyl)icosahydro-1H-cyclopenta[a]chrysen-9-yl)oxy)carbonyl)-2,2-dimethylcyclobutane-1-carboxylic acid], in that order: 104 µg·h/mL and 3050 ng/mL.
As to `Cc1nnc(C(C)C)n1C1CC2CCC(C1)N2C(=O)[C@]12CC[C@@H](C3(C)CC3)[C@@H]1[C@H]1CC[C@@H]3[C@@]4(C)CC[C@H](OC(=O)[C@H]5C[C@@H](C(=O)O)C5(C)C)C(C)(C)[C@@H]4CC[C@@]3(C)[C@]1(C)CC2` (stereo partly drawn) [Compound 60, (1R,3S)-3-((((1R,3aS,5aR,5bR,7aR,9S,11aR,11bR,13aR,13bR)-3a-((1R,3R,5S)-3-(3-isopropyl-5-methyl-4H-1,2,4-triazol-4-yl)-8-azabicyclo[3.2.1]octane-8-carbonyl)-5a,5b,8,8,11a-pentamethyl-1-(1-methylcyclopropyl)icosahydro-1H-cyclopenta[a]chrysen-9-yl)oxy)carbonyl)-2,2-dimethylcyclobutane-1-carboxylic acid], the AUC(0-t) came out at 295 µg·h/mL and the Cmax came out at 6520 ng/mL.
Turning to `Cc1nnc(C(C)C)n1C1CCN(C(=O)[C@]23CC[C@@H](C4(C)CC4)[C@@H]2[C@H]2CC[C@@H]4[C@@]5(C)CC[C@H](OC(=O)CC(C)(C)C(=O)O)C(C)(C)[C@@H]5CC[C@@]4(C)[C@]2(C)CC3)CC1` [Compound 69, 4-(((1R,3aS,5aR,5 bR,7aR,9S,11aR,11bR,13aR,13bR)-3a-(4-(3-isopropyl-5-methyl-4H-1,2,4-triazol-4-yl)piperidine-1-carbonyl)-5a,5b,8,8,11a-pentamethyl-1-(1-methylcyclopropyl)icosahydro-1H-cyclopenta[a]chrysen-9-yl)oxy)-2,2-dimethyl-4-oxobutanoic acid], the AUC(0-t) amounted to 238 µg·h/mL and the Cmax was 16700 ng/mL.
With `Cc1nnc(C(C)C)n1C1CC2CCC(C1)N2C(=O)[C@]12CC[C@@H](C3(C)CC3)[C@@H]1[C@H]1CC[C@@H]3[C@@]4(C)CC[C@H](OC(=O)CC(C)(C)C(=O)O)C(C)(C)[C@@H]4CC[C@@]3(C)[C@]1(C)CC2` (stereo partly drawn) [Compound 71, 4-(((1R,3aS,5aR,5bR,7aR,9S,11aR,11bR,13aR,13bR)-3a-((R,3R,5S)-3-(3-isopropyl-5-methyl-4H-1,2,4-triazol-4-yl)-8-azabicyclo[3.2.1]octane-8-carbonyl)-5a,5b,8,8,11a-pentamethyl-1-(1-methylcyclopropyl)icosahydro-1H-cyclopenta[a]chrysen-9-yl)oxy)-2,2-dimethyl-4-oxobutanoic acid], the AUC(0-t) worked out at 298 µg·h/mL and the Cmax was 15800 ng/mL.
